Source: BigSolDB 2.1

For `CC(=O)Oc1ccc(C2CC(=O)c3c(OC(C)=O)cc(OC(C)=O)cc3O2)cc1` (stereo not given), the solubility (mole fraction) (in 2-butoxyethanol, 278.2 K) was 0.0018, the solubility (mole fraction) (in 2-butoxyethanol, 288.2 K) was 0.00253 and the solubility (mole fraction) (in 2-butoxyethanol, 298.2 K) was 0.00337. The solubility (mole fraction) (in 2-butoxyethanol, 308.2 K) was 0.00476, the solubility (mole fraction) (in 2-butoxyethanol, 318.2 K) was 0.00712 and the solubility (mole fraction) (in 2-methoxyethanol, 278.2 K) was 0.00836. The solubility (mole fraction) (in 2-methoxyethanol, 288.2 K) was 0.0108, the solubility (mole fraction) (in 2-methoxyethanol, 298.2 K) was 0.0174 and the solubility (mole fraction) (in 2-methoxyethanol, 308.2 K) was 0.0235. It also gave a solubility (mole fraction) (in 2-methoxyethanol, 318.2 K) of 0.0356, a solubility (mole fraction) (in 2-propoxyethanol, 278.2 K) of 0.00485 and a solubility (mole fraction) (in 2-propoxyethanol, 288.2 K) of 0.00629. For the same molecule, the solubility (mole fraction) (in 2-propoxyethanol, 298.2 K) was 0.00775, the solubility (mole fraction) (in 2-propoxyethanol, 308.2 K) was 0.00887 and the solubility (mole fraction) (in 2-propoxyethanol, 318.2 K) was 0.0116. For the same molecule, the solubility (mole fraction) (in THF, 278.2 K) was 0.0413, the solubility (mole fraction) (in THF, 288.2 K) was 0.0483 and the solubility (mole fraction) (in THF, 298.2 K) was 0.058. It also gave a solubility (mole fraction) (in THF, 308.2 K) of 0.0732, a solubility (mole fraction) (in THF, 318.2 K) of 0.0902 and a solubility (mole fraction) (in acetone, 278.2 K) of 0.0759. It also gave a solubility (mole fraction) (in acetone, 288.2 K) of 0.0869, a solubility (mole fraction) (in acetone, 298.2 K) of 0.11 and a solubility (mole fraction) (in acetone, 308.2 K) of 0.129. It also gave a solubility (mole fraction) (in acetone, 318.2 K) of 0.166, a solubility (mole fraction) (in ethanol, 278.2 K) of 0.000721 and a solubility (mole fraction) (in ethanol, 288.2 K) of 0.000931. For the same molecule, the solubility (mole fraction) (in ethanol, 298.2 K) was 0.00132, the solubility (mole fraction) (in ethanol, 308.2 K) was 0.00175 and the solubility (mole fraction) (in ethanol, 318.2 K) was 0.00239. The solubility (mole fraction) (in ethyl acetate, 278.2 K) was 0.022, the solubility (mole fraction) (in ethyl acetate, 288.2 K) was 0.034 and the solubility (mole fraction) (in ethyl acetate, 298.2 K) was 0.045. The solubility (mole fraction) (in ethyl acetate, 308.2 K) was 0.0714, the solubility (mole fraction) (in ethyl acetate, 318.2 K) was 0.103 and the solubility (mole fraction) (in isopropanol, 278.2 K) was 0.000289. For the same molecule, the solubility (mole fraction) (in isopropanol, 288.2 K) was 0.000426, the solubility (mole fraction) (in isopropanol, 298.2 K) was 0.000667 and the solubility (mole fraction) (in isopropanol, 308.2 K) was 0.00102. It also gave a solubility (mole fraction) (in isopropanol, 318.2 K) of 0.00152, a solubility (mole fraction) (in methanol, 278.2 K) of 0.00122 and a solubility (mole fraction) (in methanol, 288.2 K) of 0.00155. It also gave a solubility (mole fraction) (in methanol, 298.2 K) of 0.00217, a solubility (mole fraction) (in methanol, 308.2 K) of 0.00289 and a solubility (mole fraction) (in methanol, 318.2 K) of 0.00407. For the same molecule, the solubility (mole fraction) (in n-butanol, 278.2 K) was 0.000228, the solubility (mole fraction) (in n-butanol, 288.2 K) was 0.000353 and the solubility (mole fraction) (in n-butanol, 298.2 K) was 0.000491. For the same molecule, the solubility (mole fraction) (in n-butanol, 308.2 K) was 0.000752, the solubility (mole fraction) (in n-butanol, 318.2 K) was 0.00106 and the solubility (mole fraction) (in n-hexanol, 278.2 K) was 1.8e-05. It also gave a solubility (mole fraction) (in n-hexanol, 288.2 K) of 2.4e-05, a solubility (mole fraction) (in n-hexanol, 298.2 K) of 3e-05 and a solubility (mole fraction) (in n-hexanol, 308.2 K) of 4.6e-05. For the same molecule, the solubility (mole fraction) (in n-hexanol, 318.2 K) was 6.4e-05, the solubility (mole fraction) (in n-pentanol, 278.2 K) was 0.000249 and the solubility (mole fraction) (in n-pentanol, 288.2 K) was 0.000402. The solubility (mole fraction) (in n-pentanol, 298.2 K) was 0.000556, the solubility (mole fraction) (in n-pentanol, 308.2 K) was 0.00101 and the solubility (mole fraction) (in n-pentanol, 318.2 K) was 0.00141. It also gave a solubility (mole fraction) (in n-propanol, 278.2 K) of 0.000649, a solubility (mole fraction) (in n-propanol, 288.2 K) of 0.000873 and a solubility (mole fraction) (in n-propanol, 298.2 K) of 0.00127. For the same molecule, the solubility (mole fraction) (in n-propanol, 308.2 K) was 0.00165, the solubility (mole fraction) (in n-propanol, 318.2 K) was 0.00245 and the solubility (mole fraction) (in sec-butanol, 278.2 K) was 0.000216. The solubility (mole fraction) (in sec-butanol, 288.2 K) was 0.000372, the solubility (mole fraction) (in sec-butanol, 298.2 K) was 0.000507 and the solubility (mole fraction) (in sec-butanol, 308.2 K) was 0.000824. It also gave a solubility (mole fraction) (in sec-butanol, 318.2 K) of 0.00122.
